Test results published in ChEMBL document CHEMBL1151152, “7-deoxy-6-epi-castanospermine, a trihydroxyindolizidine alkaloid glycosidase inhibitor from Castanospermum australe” (J Nat Prod, 1990).
Active and inactive are the calls of the source. The calls are words filed in the database; no cut-off is given here.

Key:
Aspergillus niger [1] = test: Inhibition of Aspergillus niger amyloglucosidase by competitive inhibition-based kinetic assay
Aspergillus niger [2] = test: Inhibition of Aspergillus niger amyloglucosidase at 7 uM by competitive inhibition-based kinetic assay
Aspergillus niger [3] = test: Inhibition of Aspergillus niger amyloglucosidase at 20 uM by competitive inhibition-based kinetic assay
Aspergillus niger [4] = test: Inhibition of Aspergillus niger beta-xylosidase up to 1 mM
Saccharomyces cerevisiae [5] = test: Inhibition of yeast alpha-glucosidase at 1 mM
Aspergillus niger [6] = test: Inhibition of Aspergillus niger alpha-galactosidase up to 1 mM
[7] = target: T1, Beta-glucuronidase (Bos taurus) (UniProt A3KMY8); test: Inhibition of bovine liver beta-glucuronidase up to 1 mM
T1 sequence (whole entry): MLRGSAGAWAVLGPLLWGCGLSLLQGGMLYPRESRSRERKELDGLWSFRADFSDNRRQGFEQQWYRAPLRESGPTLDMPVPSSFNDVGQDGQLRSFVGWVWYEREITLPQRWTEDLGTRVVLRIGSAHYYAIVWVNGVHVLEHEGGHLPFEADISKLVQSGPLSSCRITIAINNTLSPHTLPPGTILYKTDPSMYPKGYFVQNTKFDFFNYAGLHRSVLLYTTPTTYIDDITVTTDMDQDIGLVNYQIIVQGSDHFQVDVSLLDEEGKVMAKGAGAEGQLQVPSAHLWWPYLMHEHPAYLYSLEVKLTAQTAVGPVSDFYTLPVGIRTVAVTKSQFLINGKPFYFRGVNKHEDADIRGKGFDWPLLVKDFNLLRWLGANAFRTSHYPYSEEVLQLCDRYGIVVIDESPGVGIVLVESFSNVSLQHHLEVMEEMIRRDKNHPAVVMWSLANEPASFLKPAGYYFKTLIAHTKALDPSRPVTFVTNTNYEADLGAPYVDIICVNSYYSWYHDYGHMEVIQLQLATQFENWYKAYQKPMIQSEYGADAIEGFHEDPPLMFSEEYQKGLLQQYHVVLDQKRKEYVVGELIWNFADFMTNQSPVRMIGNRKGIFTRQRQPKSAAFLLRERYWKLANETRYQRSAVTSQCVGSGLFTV

Aspergillus niger [8] = test: Inhibition of Aspergillus niger amyloglucosidase at 230 uM by competitive inhibition-based kinetic assay
Canavalia ensiformis = test: Inhibition of jack bean alpha-mannosidase up to 1 mM
Bos taurus [9] = species on record: Bos taurus; test: Inhibition of bovine liver beta-galactosidase
Bos taurus [10] = species on record: Bos taurus; test: Inhibition of bovine liver beta-galactosidase at 1 mM
Bos taurus [11] = species on record: Bos taurus; test: Inhibition of bovine epididymis beta-N-acetylglucosaminidase B up to 1 mM
[12] = target: Sucrase-isomaltase, intestinal (Rattus norvegicus) (UniProt P23739); test: Inhibition of Sprague-Dawley rat small intestine sucrase at 1 mM
Sucrase-isomaltase, intestinal (Rattus norvegicus), sequence (P23739 1-1013 limits assumed): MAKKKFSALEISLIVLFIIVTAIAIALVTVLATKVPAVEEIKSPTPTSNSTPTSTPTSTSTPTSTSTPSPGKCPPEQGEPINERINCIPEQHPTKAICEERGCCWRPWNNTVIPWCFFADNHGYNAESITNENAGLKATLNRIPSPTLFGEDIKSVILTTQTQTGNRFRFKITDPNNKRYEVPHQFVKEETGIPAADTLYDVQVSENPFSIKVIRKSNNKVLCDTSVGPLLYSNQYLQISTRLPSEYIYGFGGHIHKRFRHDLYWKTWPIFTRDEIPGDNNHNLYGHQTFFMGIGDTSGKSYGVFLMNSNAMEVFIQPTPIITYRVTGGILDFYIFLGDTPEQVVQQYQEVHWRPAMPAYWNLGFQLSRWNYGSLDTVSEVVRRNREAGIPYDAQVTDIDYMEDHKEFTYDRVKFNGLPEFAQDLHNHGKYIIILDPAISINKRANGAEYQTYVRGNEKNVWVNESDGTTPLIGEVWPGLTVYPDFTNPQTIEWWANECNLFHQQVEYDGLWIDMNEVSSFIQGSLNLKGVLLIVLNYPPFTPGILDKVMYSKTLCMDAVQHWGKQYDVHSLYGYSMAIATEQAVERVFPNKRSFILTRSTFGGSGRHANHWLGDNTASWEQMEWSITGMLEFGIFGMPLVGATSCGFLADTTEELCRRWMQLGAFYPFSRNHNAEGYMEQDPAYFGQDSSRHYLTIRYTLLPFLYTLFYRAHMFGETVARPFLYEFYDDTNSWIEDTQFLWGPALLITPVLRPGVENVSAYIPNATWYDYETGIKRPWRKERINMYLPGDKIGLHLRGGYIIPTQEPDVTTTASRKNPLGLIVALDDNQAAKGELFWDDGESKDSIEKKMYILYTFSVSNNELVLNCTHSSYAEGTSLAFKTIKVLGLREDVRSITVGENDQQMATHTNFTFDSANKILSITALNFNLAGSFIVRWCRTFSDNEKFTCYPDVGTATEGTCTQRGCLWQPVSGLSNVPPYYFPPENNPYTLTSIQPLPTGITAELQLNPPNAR
Sucrase-isomaltase, intestinal (Rattus norvegicus), sequence (P23739 1014-1841 limits assumed): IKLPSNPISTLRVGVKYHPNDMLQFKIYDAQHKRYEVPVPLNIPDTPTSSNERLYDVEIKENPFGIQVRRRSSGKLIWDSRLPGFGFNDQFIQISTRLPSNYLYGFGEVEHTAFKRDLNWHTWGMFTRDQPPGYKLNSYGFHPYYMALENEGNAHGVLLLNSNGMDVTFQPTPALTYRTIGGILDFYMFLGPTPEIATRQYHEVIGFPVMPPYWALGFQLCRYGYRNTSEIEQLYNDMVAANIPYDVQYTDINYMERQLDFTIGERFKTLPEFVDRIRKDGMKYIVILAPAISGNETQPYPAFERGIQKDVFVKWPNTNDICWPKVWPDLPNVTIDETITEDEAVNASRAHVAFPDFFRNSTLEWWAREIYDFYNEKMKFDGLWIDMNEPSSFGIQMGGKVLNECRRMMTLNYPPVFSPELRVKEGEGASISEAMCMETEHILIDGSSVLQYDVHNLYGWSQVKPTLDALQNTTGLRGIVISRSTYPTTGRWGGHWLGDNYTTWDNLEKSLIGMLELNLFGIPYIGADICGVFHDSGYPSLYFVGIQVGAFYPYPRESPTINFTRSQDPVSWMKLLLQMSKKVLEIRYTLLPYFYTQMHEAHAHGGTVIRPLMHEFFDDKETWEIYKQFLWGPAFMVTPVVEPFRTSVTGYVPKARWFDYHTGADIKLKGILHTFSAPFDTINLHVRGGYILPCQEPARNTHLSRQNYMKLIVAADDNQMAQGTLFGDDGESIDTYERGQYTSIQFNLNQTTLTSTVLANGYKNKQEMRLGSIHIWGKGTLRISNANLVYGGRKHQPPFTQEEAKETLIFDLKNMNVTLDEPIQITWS

Prunus dulcis = test: Inhibition of almond beta-glucosidase up to 1 mM
[13] = system: Vigna radiata var. radiata; test: Inhibition of mung bean seedlings glucosidase 1
Saccharomyces cerevisiae [14] = test: Inhibition of yeast alpha-glucosidase
[15] = target: Sucrase-isomaltase, intestinal (Rattus norvegicus) (UniProt P23739); test: Inhibition of Sprague-Dawley rat small intestine sucrase
[16] = system: Vigna radiata var. radiata; test: Inhibition of mung bean seedlings glucosidase 2 up to 1 mM
Aspergillus niger [17] = test: Inhibition of Aspergillus niger alpha-mannosidase up to 1 mM
Bos taurus [18] = species on record: Bos taurus; test: Inhibition of bovine kidney alpha-L-fucosidase up to 1 mM
[19] = system: Vigna radiata var. radiata; test: Inhibition of mung bean seedlings glucosidase 1 at 1 mM

## O[C@H]1[C@H](O)[C@@H](O)CN2CC[C@H](O)[C@H]12
Aspergillus niger [1]
  Activity: Active
Aspergillus niger [2]
  inhibition: 50%

## O[C@H]1[C@H](O)[C@H](O)CN2CC[C@H](O)[C@H]12
Aspergillus niger [1]
  Activity: Active
Aspergillus niger [3]
  inhibition: 50%

## O[C@H]1C[C@H](O)[C@H]2[C@@H](O)CCN2C1
Aspergillus niger [4]
  Activity: inactive
Saccharomyces cerevisiae [5]
  inhibition: 50%
Aspergillus niger [6]
  Activity: inactive
Aspergillus niger [1]
  Activity: Active
[7]
  Activity: inactive
Aspergillus niger [8]
  inhibition: 50%
Canavalia ensiformis
  Activity: inactive
Bos taurus [9]
  Activity: Active
Bos taurus [10]
  inhibition: 20%
Bos taurus [11]
  Activity: inactive
[12]
  inhibition: 30%
Prunus dulcis
  Activity: inactive
[13]
  Activity: Active
Saccharomyces cerevisiae [14]
  Activity: Active
[15]
  Activity: Active
[16]
  Activity: inactive
Aspergillus niger [17]
  Activity: inactive
Bos taurus [18]
  Activity: inactive
[19]
  inhibition: 35%
